Reference: PubChem BioAssay AID1259407 (Chemical Carcinogenesis Research Information System (CCRIS), 2018)
Active and inactive are the calls of the source. The rule behind the calls is not given here.

Tested on: CCRIS mutagenicity, Ames/micronucleus/aberration tests
Assay: CCRIS mutagenicity studies
[1] = Test System: AMES SALMONELLA TYPHIMURIUM, Strain/Indicator: TA98, Metabolic Activation: NONE, Method: PREINCUBATION
[2] = Test System: AMES SALMONELLA TYPHIMURIUM, Strain/Indicator: TA98, Metabolic Activation: NONE, Method: STANDARD PLATE
[3] = Test System: AMES SALMONELLA TYPHIMURIUM, Strain/Indicator: TA98, Metabolic Activation: RAT, LIVER, S-9, AROCLOR 1254, Method: STANDARD PLATE
[4] = Test System: AMES SALMONELLA TYPHIMURIUM, Strain/Indicator: TA100, Metabolic Activation: NONE, Method: STANDARD PLATE
[5] = Test System: AMES SALMONELLA TYPHIMURIUM, Strain/Indicator: TA100, Metabolic Activation: RAT, LIVER, S-9, AROCLOR 1254, Method: STANDARD PLATE
[6] = Test System: AMES SALMONELLA TYPHIMURIUM, Strain/Indicator: TA1535, Metabolic Activation: NONE, Method: STANDARD PLATE
[7] = Test System: AMES SALMONELLA TYPHIMURIUM, Strain/Indicator: TA1535, Metabolic Activation: RAT, LIVER, S-9, AROCLOR 1254, Method: STANDARD PLATE
[8] = Test System: AMES SALMONELLA TYPHIMURIUM, Strain/Indicator: TA1537, Metabolic Activation: NONE, Method: STANDARD PLATE
[9] = Test System: AMES SALMONELLA TYPHIMURIUM, Strain/Indicator: TA1537, Metabolic Activation: RAT, LIVER, S-9, AROCLOR 1254, Method: STANDARD PLATE
[10] = Test System: MOUSE LYMPHOMA, Strain/Indicator: L5178Y (TK+/TK-), Metabolic Activation: NONE, Method: SUSPENSION/PLATE
[11] = Test System: MOUSE LYMPHOMA, Strain/Indicator: L5178Y (TK+/TK-), Metabolic Activation: RAT, LIVER, S-9, AROCLOR 1254, Method: SUSPENSION/PLATE

Question: With `CCCCCCCCCCCCCCCCCC(=O)NCCNC(=O)CCCCCCCCCCCCCCCCC` as the compound, how does the mutagenic call [1] read?
Answer: inactive; negative

Question: What about the mutagenic call (Test System: AMES SALMONELLA TYPHIMURIUM, Strain/Indicator: TA98, Metabolic Activation: RAT LIVER S-9, PHENOBARBITAL AND BETA-NAPHTHOFLAVONE, Method: PREINCUBATION) of the same compound?
Answer: inactive; negative

Question: What about the mutagenic call (Test System: AMES SALMONELLA TYPHIMURIUM, Strain/Indicator: TA98, Metabolic Activation: RAT, LIVER, S-9, KC 500, Method: PREINCUBATION) of the same compound?
Answer: inactive; negative

Question: And the mutagenic call (Test System: AMES SALMONELLA TYPHIMURIUM, Strain/Indicator: TA100, Metabolic Activation: NONE, Method: PREINCUBATION)?
Answer: inactive; negative

Question: What about the mutagenic call (Test System: AMES SALMONELLA TYPHIMURIUM, Strain/Indicator: TA100, Metabolic Activation: RAT LIVER S-9, PHENOBARBITAL AND BETA-NAPHTHOFLAVONE, Method: PREINCUBATION) of the same compound?
Answer: inactive; negative

Question: And the mutagenic call (Test System: AMES SALMONELLA TYPHIMURIUM, Strain/Indicator: TA100, Metabolic Activation: RAT, LIVER, S-9, KC 500, Method: PREINCUBATION)?
Answer: inactive; negative

Question: What about the mutagenic call (Test System: AMES SALMONELLA TYPHIMURIUM, Strain/Indicator: TA1535, Metabolic Activation: NONE, Method: PREINCUBATION) of the same compound?
Answer: inactive; negative

Question: What about the mutagenic call (Test System: AMES SALMONELLA TYPHIMURIUM, Strain/Indicator: TA1535, Metabolic Activation: RAT LIVER S-9, PHENOBARBITAL AND BETA-NAPHTHOFLAVONE, Method: PREINCUBATION) of the same compound?
Answer: inactive; negative

Question: What about the mutagenic call (Test System: AMES SALMONELLA TYPHIMURIUM, Strain/Indicator: TA1535, Metabolic Activation: RAT, LIVER, S-9, KC 500, Method: PREINCUBATION) of the same compound?
Answer: inactive; negative

Question: What about the mutagenic call (Test System: AMES SALMONELLA TYPHIMURIUM, Strain/Indicator: TA1537, Metabolic Activation: NONE, Method: PREINCUBATION) of the same compound?
Answer: inactive; negative

Question: And the mutagenic call (Test System: AMES SALMONELLA TYPHIMURIUM, Strain/Indicator: TA1537, Metabolic Activation: RAT LIVER S-9, PHENOBARBITAL AND BETA-NAPHTHOFLAVONE, Method: PREINCUBATION)?
Answer: inactive; negative

Question: And the mutagenic call (Test System: AMES SALMONELLA TYPHIMURIUM, Strain/Indicator: TA1537, Metabolic Activation: RAT, LIVER, S-9, KC 500, Method: PREINCUBATION)?
Answer: inactive; negative

Question: What about the mutagenic call (Test System: AMES SALMONELLA TYPHIMURIUM, Strain/Indicator: TA1538, Metabolic Activation: NONE, Method: PREINCUBATION) of the same compound?
Answer: inactive; negative

Question: And the mutagenic call (Test System: AMES SALMONELLA TYPHIMURIUM, Strain/Indicator: TA1538, Metabolic Activation: RAT, LIVER, S-9, KC 500, Method: PREINCUBATION)?
Answer: inactive; negative

Question: What about the mutagenic call (Test System: E. COLI, Strain/Indicator: WP2 UVRA, Metabolic Activation: NONE, Method: PREINCUBATION) of the same compound?
Answer: inactive; negative

Question: What about the mutagenic call (Test System: E. COLI, Strain/Indicator: WP2 UVRA, Metabolic Activation: RAT, LIVER, S-9, KC 500, Method: PREINCUBATION) of the same compound?
Answer: inactive; negative

Question: And the mutagenic call (Test System: E.COLI, Strain/Indicator: WP2UVRA/PKM101, Metabolic Activation: NONE, Method: PREINCUBATION)?
Answer: inactive; negative

Question: What about the mutagenic call (Test System: E.COLI, Strain/Indicator: WP2UVRA/PKM101, Metabolic Activation: RAT LIVER S-9, PHENOBARBITAL AND BETA-NAPHTHOFLAVONE, Method: PREINCUBATION) of the same compound?
Answer: inactive; negative

Question: `NC(=O)[C@@H]1CCCN1C(=O)[C@H](Cc1cnc[nH]1)NC(=O)[C@@H]1CCC(=O)N1` was tested. Which mutagenic call [2] did it give?
Answer: inactive; negative

Question: What about the mutagenic call [3] of the same compound?
Answer: inactive; negative

Question: What about the mutagenic call [4] of the same compound?
Answer: inactive; negative

Question: What about the mutagenic call [5] of the same compound?
Answer: inactive; negative

Question: And the mutagenic call [6]?
Answer: inactive; negative

Question: And the mutagenic call [7]?
Answer: inactive; negative

Question: And the mutagenic call [8]?
Answer: inactive; negative

Question: And the mutagenic call [9]?
Answer: inactive; negative

Question: Which mutagenic call (Test System: AMES SALMONELLA TYPHIMURIUM, Strain/Indicator: TA98, Metabolic Activation: HAMSTER, LIVER, S-9, AROCLOR 1254, Method: STANDARD PLATE) does the source give for `Nc1ncnc2c1ncn2[C@H]1CC[C@@H](CO)O1` here?
Answer: inactive; negative

Question: What about the mutagenic call [2] of the same compound?
Answer: inactive; negative

Question: What about the mutagenic call [3] of the same compound?
Answer: inactive; negative

Question: What about the mutagenic call (Test System: AMES SALMONELLA TYPHIMURIUM, Strain/Indicator: TA100, Metabolic Activation: HAMSTER, LIVER, S-9, AROCLOR 1254, Method: STANDARD PLATE) of the same compound?
Answer: inactive; negative

Question: And the mutagenic call [4]?
Answer: inactive; negative

Question: What about the mutagenic call [5] of the same compound?
Answer: inactive; negative

Question: And the mutagenic call (Test System: AMES SALMONELLA TYPHIMURIUM, Strain/Indicator: TA1535, Metabolic Activation: HAMSTER, LIVER, S-9, AROCLOR 1254, Method: STANDARD PLATE)?
Answer: inactive; negative

Question: And the mutagenic call [6]?
Answer: inactive; negative

Question: And the mutagenic call [7]?
Answer: inactive; negative

Question: What about the mutagenic call (Test System: AMES SALMONELLA TYPHIMURIUM, Strain/Indicator: TA1537, Metabolic Activation: HAMSTER, LIVER, S-9, AROCLOR 1254, Method: STANDARD PLATE) of the same compound?
Answer: inactive; negative

Question: And the mutagenic call [8]?
Answer: inactive; negative

Question: And the mutagenic call [9]?
Answer: inactive; negative

Question: And the mutagenic call (Test System: AMES SALMONELLA TYPHIMURIUM, Strain/Indicator: TA1538, Metabolic Activation: HAMSTER, LIVER, S-9, AROCLOR 1254, Method: STANDARD PLATE)?
Answer: inactive; negative

Question: And the mutagenic call (Test System: AMES SALMONELLA TYPHIMURIUM, Strain/Indicator: TA1538, Metabolic Activation: NONE, Method: STANDARD PLATE)?
Answer: inactive; negative

Question: What about the mutagenic call (Test System: AMES SALMONELLA TYPHIMURIUM, Strain/Indicator: TA1538, Metabolic Activation: RAT, LIVER, S-9, AROCLOR 1254, Method: STANDARD PLATE) of the same compound?
Answer: inactive; negative

Question: What about the mutagenic call [10] of the same compound?
Answer: active; positive. reevaluation of results: positive

Question: And the mutagenic call [11]?
Answer: active; positive. reevaluation of results: equivocal

Question: For `Oc1ccc2c3ccccc3c3cc4ccccc4cc3c2c1`, which mutagenic call (Test System: AMES SALMONELLA TYPHIMURIUM, Strain/Indicator: TA100, Metabolic Activation: RAT, LIVER, S-9, AROCLOR 1254, Method: PREINCUBATION) is on record?
Answer: active; positive

Question: For `c1ccc2c(c1)Cc1ccccc1-2`, which mutagenic call (End Point: IN VITRO CHROMOSOMAL ABERRATIONS, Test System: CHINESE HAMSTER LUNG (CHL) CELLS, Metabolic Activation: NONE) is on record?
Answer: inactive; negative

Question: And the mutagenic call (End Point: IN VITRO CHROMOSOMAL ABERRATIONS, Test System: CHINESE HAMSTER LUNG (CHL) CELLS, Metabolic Activation: RAT, LIVER, S-9, KC-400)?
Answer: active; positive

Question: And the mutagenic call (End Point: IN VITRO MICRONUCLEUS, Test System: CHO CELLS, Metabolic Activation: RAT, LIVER, S-9, AROCLOR 1254)?
Answer: inactive; negative

Question: And the mutagenic call (Test System: AMES SALMONELLA TYPHIMURIUM, Strain/Indicator: TA97, Metabolic Activation: NONE, Method: STANDARD PLATE)?
Answer: inactive; negative

Question: What about the mutagenic call (Test System: AMES SALMONELLA TYPHIMURIUM, Strain/Indicator: TA97, Metabolic Activation: RAT, LIVER, S-9, PCB, Method: STANDARD PLATE) of the same compound?
Answer: inactive; negative

Question: What about the mutagenic call [2] of the same compound?
Answer: inactive; negative

Question: What about the mutagenic call (Test System: AMES SALMONELLA TYPHIMURIUM, Strain/Indicator: TA98, Metabolic Activation: RAT, LIVER, S-9, PCB, Method: STANDARD PLATE) of the same compound?
Answer: inactive; negative

Question: What about the mutagenic call [4] of the same compound?
Answer: inactive; negative

Question: And the mutagenic call (Test System: AMES SALMONELLA TYPHIMURIUM, Strain/Indicator: TA100, Metabolic Activation: RAT, LIVER, S-9, PCB, Method: STANDARD PLATE)?
Answer: inactive; negative

Question: And the mutagenic call [10]?
Answer: active; positive

Question: What about the mutagenic call [11] of the same compound?
Answer: active; positive

Question: And the mutagenic call (Test System: UDS RAT HEPATOCYTES, Strain/Indicator: BROMODEOXYURIDINE INCORP, Metabolic Activation: NONE, Method: FLOW CYTOMETRIC ANALYSIS)?
Answer: inactive; negative

Question: How did the mutagenic call [1] turn out when `O=[N+]([O-])/C=C/c1ccc([N+](=O)[O-])o1` was run?
Answer: active; positive

Question: For `Cc1ccc2c3c(cc4ccccc42)-c2ccccc2-c13`, which mutagenic call (Test System: AMES SALMONELLA TYPHIMURIUM, Strain/Indicator: TA100, Metabolic Activation: RAT, LIVER, S-9, AROCLOR 1254) is on record?
Answer: active; positive
